One assay deals with human orexin-1 receptor (Homo sapiens (Human), UniProt O43613). The experiment in a line: In vitro assay: intracellular calcium measurements (FLIPR), antagonistic activity. The class given is cell-based. The note with it: CHO cells, 3 nM orexin-A, marked values are geometric means of n = 2-6, read-out: IC50 OX1. (Calcium assays in cells follow changes in intracellular calcium, usually with a dye or a luminescent sensor.)

A further assay deals with human orexin-2 receptor (Homo sapiens (Human), UniProt O43614). The assay is described as above. The class given is cell-based. The note with it: CHO cells, 3 nM orexin-A, marked values are geometric means of n = 2-6, read-out: IC50 OX2.
Chain of human orexin-2 receptor (O43614 whole entry): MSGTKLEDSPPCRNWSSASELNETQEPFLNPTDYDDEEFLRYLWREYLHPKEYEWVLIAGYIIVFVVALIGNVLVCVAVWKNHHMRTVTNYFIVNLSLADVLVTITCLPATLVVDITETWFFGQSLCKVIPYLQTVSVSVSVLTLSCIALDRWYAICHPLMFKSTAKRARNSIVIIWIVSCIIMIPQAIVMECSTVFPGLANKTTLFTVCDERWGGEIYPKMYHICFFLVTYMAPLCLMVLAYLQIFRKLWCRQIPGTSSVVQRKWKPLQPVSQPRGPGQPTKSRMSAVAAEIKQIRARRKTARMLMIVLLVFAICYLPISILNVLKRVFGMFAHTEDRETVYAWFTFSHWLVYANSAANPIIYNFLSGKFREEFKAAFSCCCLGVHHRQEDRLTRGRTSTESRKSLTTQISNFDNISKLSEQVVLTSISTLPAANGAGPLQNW
[1] abbreviates: compound incubation time of 10 min.

pIC50: −log10 of the molar value. Like-named read-outs stand apart in the source and are kept apart here.

Chain of human orexin-1 receptor (O43613 whole entry): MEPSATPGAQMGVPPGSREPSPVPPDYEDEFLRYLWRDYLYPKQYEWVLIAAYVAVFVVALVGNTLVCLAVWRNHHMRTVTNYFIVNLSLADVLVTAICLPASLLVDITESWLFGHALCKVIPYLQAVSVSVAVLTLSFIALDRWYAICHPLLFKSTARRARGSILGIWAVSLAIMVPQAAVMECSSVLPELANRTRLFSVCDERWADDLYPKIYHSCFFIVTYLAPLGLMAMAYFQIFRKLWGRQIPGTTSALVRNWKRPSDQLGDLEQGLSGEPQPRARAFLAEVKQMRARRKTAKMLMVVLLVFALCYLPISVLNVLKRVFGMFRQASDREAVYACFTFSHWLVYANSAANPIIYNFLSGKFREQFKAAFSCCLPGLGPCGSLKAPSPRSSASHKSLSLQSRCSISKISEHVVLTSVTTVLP

As a reminder, the pIC50 is the IC50 on a negative log10 scale, so that one unit is a factor of ten. As to `CCOc1cc(F)cc(F)c1[C@@H]1C[C@H](F)C(=O)N1Cc1ccc(OC(F)(F)F)cc1` (racemic) [Example 438, rac-(3S*,5S*)-5-(2-ethoxy-4,6-difluorophenyl)-3-fluoro-1-(4-(trifluoromethoxy)benzyl)pyrrolidin-2-one], the results for the negative logarithm of the IC50 (pIC50) on human orexin-1 receptor (compound incubation 120 min) and at human orexin-2 receptor (compound incubation 120 min) were 6.04 and 7.43, respectively.
Taken in the same sequence, the figures for `CCOc1cc(F)cc(F)c1[C@@H]1C[C@H](Cl)C(=O)N1Cc1ccc(OC(F)(F)F)cc1` (racemic) [Example 439, rac-(3S*,5S*)-3-chloro-5-(2-ethoxy-4,6-difluorophenyl)-1-(4-(trifluoromethoxy)benzyl)pyrrolidin-2-one] were 6.24 and 7.20.
Consider `COc1cccc(OC)c1C1CCCC(=O)N1Cc1cnc2ccccc2c1` (stereo not shown) [Example 1, 6-(2,6-dimethoxyphenyl)-1-(quinolin-3-ylmethyl)piperidin-2-one], for which the pIC50 at human orexin-1 receptor (setting [1]) was 6.19; at human orexin-2 receptor (setting [1]), 6.68.
Turning to `COc1cccc(OC)c1C1CCCC(=O)N1Cc1ccc2sc(C)nc2c1` (stereo not shown) [Example 2, 6-(2,6-dimethoxyphenyl)-1-((2-methylbenzo[d]thiazol-5-yl)methyl)piperidin-2-one], the negative-log IC50 (pIC50) is 7.59 on human orexin-1 receptor (compound incubation 120 min) and 7.89 at human orexin-2 receptor (compound incubation 120 min).
Taken in the same sequence, the figures for `COc1cccc(OC)c1C1CCCC(=O)N1Cc1ccc2ncccc2c1` (stereo not shown) [Example 3, 6-(2,6-dimethoxyphenyl)-1-(quinolin-6-ylmethyl)piperidin-2-one] were 6.81 and 6.00.
The corresponding values for `COc1cccc(OC)c1C1CCCC(=O)N1Cc1cnc(OC(F)F)c(Cl)c1` (stereo not shown) [Example 5, 1-((5-chloro-6-(difluoromethoxy)pyridin-3-yl)methyl)-6-(2,6-dimethoxyphenyl)piperidin-2-one] are 6.65 and 7.42.
As for `COc1cccc(OC)c1C1CCCC(=O)N1Cc1cccc(-c2ccc(F)cc2)n1` (stereo not shown) [Example 6, 6-(2,6-dimethoxyphenyl)-1-((6-(4-fluorophenyl)pyridin-2-yl)methyl)piperidin-2-one], the results for the pIC50 at human orexin-1 receptor (compound incubation 120 min) and on human orexin-2 receptor (compound incubation 120 min) were 6.92 and 6.85, respectively.
Taken in the same sequence, the figures for `COc1cccc(OC)c1C1CCCC(=O)N1Cc1cccc(-c2cccnc2)c1` (stereo not shown) [Example 7, 6-(2,6-dimethoxyphenyl)-1-(3-(pyridin-3-yl)benzyl)piperidin-2-one] were 7.15 and 7.26.
Taken in the same sequence, the figures for `COc1cccc(OC)c1C1CCCC(=O)N1Cc1cncc(-c2ccccc2)c1` (stereo not shown) [Example 8, 6-(2,6-dimethoxyphenyl)-1-((5-phenylpyridin-3-yl)methyl)piperidin-2-one] were 5.77 and 6.15.
Regarding `COc1cccc(OC)c1C1CCCC(=O)N1Cc1cccc(-c2ccncc2)c1` (stereo not shown) [Example 9, 6-(2,6-dimethoxyphenyl)-1-(3-(pyridin-4-yl)benzyl)piperidin-2-one], the figures for the pIC50 at human orexin-1 receptor (compound incubation 120 min) and on human orexin-2 receptor (compound incubation 120 min) were 7.54 and 7.19, respectively.
Taken in the same sequence, the figures for `COc1cccc(OC)c1C1CCCC(=O)N1Cc1cccc(-c2ccccn2)c1` (stereo not shown) [Example 10, 6-(2,6-dimethoxyphenyl)-1-(3-(pyridin-2-yl)benzyl)piperidin-2-one] were 8.05 and 8.10.
Taken in the same sequence, the figures for `COc1cccc(OC)c1C1CCCC(=O)N1Cc1cccc(-c2ccccc2)n1` (stereo not shown) [Example 11, 6-(2,6-dimethoxyphenyl)-1-((6-phenylpyridin-2-yl)methyl)piperidin-2-one] were 7.47 and 7.37.
In the case of `COc1cccc(OC)c1C1CCCC(=O)N1Cc1ccnc(-c2ccccc2)c1` (stereo not shown) [Example 12, 6-(2,6-dimethoxyphenyl)-1-((2-phenylpyridin-4-yl)methyl)piperidin-2-one], the negative-log IC50 (pIC50) is 7.60 at human orexin-1 receptor (compound incubation 120 min) and 7.47 at human orexin-2 receptor (compound incubation 120 min).
Taken in the same sequence, the figures for `COc1cccc(OC)c1C1CCCC(=O)N1Cc1cccc(N2CCCCC2)c1` (stereo not shown) [Example 13, 6-(2,6-dimethoxyphenyl)-1-(3-(piperidin-1-yl)benzyl)piperidin-2-one] were 7.66 and 7.34.

Source of the values: patent publication US9242970B2 (ACTELION PHARMACEUTICALS LTD., priority 2010, dated 2016).
